Assay results: patent publication US10189854B2, “Substituted pyrimidine compounds” (Grünenthal GmbH, priority 2014, dated 2019)

Molecular target: human PDE4B1 (Homo sapiens (Human), UniProt Q07343)
Test: TR-FRET assay using the LANCE Ultra cAMP kit to determine the activity of hPDE4B1
Assay type: biochemical
Details: IC50 inhibition of PDE4B, mean
Procedure, shortened: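 Recombinant human PDE4B1 (Sf9-expressed, 0.96 U) incubated with compound and 500 nM cAMP in 50 mM Tris-HCl, 50 mM MgCl2, 5 mM DTT, pH 8.5, 30 min at room temperature. Residual cAMP read by TR-FRET (665/620 nm ratio) after IBMX stop. IC50 from ten-concentration curves as % inhibition of control.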

Sequence of human PDE4B1 (Q07343 whole entry): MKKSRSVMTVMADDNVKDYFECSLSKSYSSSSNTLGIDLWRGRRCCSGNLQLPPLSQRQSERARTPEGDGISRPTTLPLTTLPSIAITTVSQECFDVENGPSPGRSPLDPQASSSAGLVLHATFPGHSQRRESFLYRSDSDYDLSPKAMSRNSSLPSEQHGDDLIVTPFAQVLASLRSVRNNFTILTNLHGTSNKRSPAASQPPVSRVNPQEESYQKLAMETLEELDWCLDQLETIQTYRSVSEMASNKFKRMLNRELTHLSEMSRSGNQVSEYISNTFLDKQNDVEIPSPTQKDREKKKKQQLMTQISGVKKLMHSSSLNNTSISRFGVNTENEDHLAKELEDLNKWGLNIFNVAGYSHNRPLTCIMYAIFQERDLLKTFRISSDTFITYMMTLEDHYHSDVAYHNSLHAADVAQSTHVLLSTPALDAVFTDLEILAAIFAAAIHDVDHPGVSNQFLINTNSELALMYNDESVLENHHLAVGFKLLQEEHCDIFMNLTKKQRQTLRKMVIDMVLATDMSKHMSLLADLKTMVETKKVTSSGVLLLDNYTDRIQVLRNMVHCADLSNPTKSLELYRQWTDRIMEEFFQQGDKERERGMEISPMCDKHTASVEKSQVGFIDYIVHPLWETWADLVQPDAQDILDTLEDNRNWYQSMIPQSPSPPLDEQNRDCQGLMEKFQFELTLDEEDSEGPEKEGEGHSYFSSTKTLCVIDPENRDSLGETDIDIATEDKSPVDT

Row | Compound | IC50
1 | CN(CCO)C(=O)c1ccc2c(c1)N(c1ncc(-c3nc(CCO)cs3)cn1)CC21CC1 [Compound 339, N-(2-Hydroxy-ethyl)-1-[5-[4-(2-hydroxy-ethyl)-thiaozl-2-yl]-pyrimidin-2-yl]-N-methyl-spiro[1,2-dihydro-indole-3,1′-cyclopropane]-6-carboxylic acid amide] | < 0.1 µM
2 | CN(C)C(=O)c1ccc2c(c1)N(c1ncc(-c3cc(N(C)C)ccn3)cn1)CC21CC1 [Compound 271, 1-[5-(4-Dimethylamino-pyridin-2-yl)-pyrimidin-2-yl]-N,N-dimethyl-spiro[1,2-dihydro-indole-3,1′-cyclopropane]-6-carboxylic acid amide] | < 0.1 µM
3 | COC(=O)CN(C)C(=O)c1ccc2c(c1)N(c1ncc(-c3ccccc3F)cn1)CC21CC1 [Compound 246, 2-[[1-[5-(2-Fluorophenyl)-pyrimidin-2-yl]-spiro[1,2-dihydro-indole-3,1′-cyclopropane]-6-carbonyl]-methyl-amino]acetic acid methyl ester] | 0.1 to 1 µM
4 | CN(CCO)C(=O)c1ccc2c(c1)N(c1ncc(-c3cc([S+](C)[O-])ccc3F)cn1)CC21CC1 (stereo not drawn) [Compound 287, 1-[5-[2-Fluoro-5-(methylsulfinyl)-phenyl]-pyrimidin-2-yl]-N-(2-hydroxy-ethyl)-N-methyl-spiro[1,2-dihydro-indole-3,1′-cyclopropane]-6-carboxylic acid amide] | < 0.1 µM
5 | COCCN1CCN(C(=O)c2ccc3c(c2)N(c2ncc(-c4ccccc4F)cn2)CC32CC2)CC1 [Compound 235, [1-[5-(2-Fluorophenyl)-pyrimidin-2-yl]-spiro[1,2-dihydro-indole-3,1′-cylcopropane]-6-yl]-[4-(2-methoxy-ethyl)-piperazin-1-yl]-methanone] | 0.1 to 1 µM
6 | COc1cnnc(-c2cnc(N3CC4(CC4)c4ccc(C(=O)N(C)CCO)cc43)nc2)c1 [Compound 340, N-(2-Hydroxy-ethyl)-1-[5-(5-methoxy-pyridazin-3-yl)-pyrimidin-2-yl]-N-methyl-spiro[1,2-dihydro-indole-3,1′-cyclopropane]-6-carboxylic acid amide] | < 0.1 µM
7 | CN(CCO)C(=O)c1ccc2c(c1)N(c1ncc(-c3cc(C4(O)CC4)ccc3F)cn1)CC21CC1 [Compound 363, 1-[5-[2-Fluoro-5-(1-hydroxy-cyclopropyl)-phenyl]-pyrimidin-2-yl]-N-(2-hydroxy-ethyl)-N-methyl-spiro[1,2-dihydro-indole-3,1′-cyclopropane]-6-carboxylic acid amide] | < 0.1 µM
8 | CN(CCO)C(=O)c1ccc2c(c1)N(c1ncc(-c3cccc([S+](C)[O-])c3)cn1)CC21CC1 (stereo not drawn) [Compound 281, N-(2-Hydorxy-ethyl)-N-methyl-1-[5-[3-(methylsulfinyl)-phenyl]pyrimidin-2-yl]-spiro[1,2-dihydro-indole-3,1′-cyclopropane]-6-carboxylic acid amide] | < 0.1 µM
9 | CCc1ccnc(-c2cnc(N3CC4(CC4)c4ccc(C(=O)N(C)CCO)cc43)nc2)c1 [Compound 241, 1-[5-(4-Ethyl-pyridin-2-yl)-pyrimidin-2-yl]-N-(2-hydroxy-ethyl)-N-methyl-spiro[1,2-dihydro-indole-3,1′-cyclopropane]-6-carboxylic acid amide] | < 0.1 µM
10 | COc1ccnc(-c2cnc(N3CC4(CC4)c4ccc(C(=O)N(C)CCO)cc43)nc2)c1 [Compound 224, N-(2-hydroxyethyl)-1′-(5-(4-methoxypyridin-2-yl)pyrimidin-2-yl)-N-methylspiro[cyclopropane-1,3′-indoline]-6′-carboxamide] | < 0.1 µM
11 | CN(CCO)C(=O)c1ccc2c(c1)N(c1ncc(-c3ccccn3)cn1)CC21CC1 [Compound 229, N-(2-Hydroxy-ethyl)-N-methyl-1-(5-pyridin-2-yl-pyrimidin-2-yl)-spiro[1,2-dihydro-indole-3,1′-cyclopropane]-6-carboxylic acid amide] | < 0.1 µM
12 | O=C(c1ccc2c(c1)N(c1ncc(-c3ccccc3F)cn1)CC21CC1)N1C[C@H]2C[C@@H]1CN2 [Compound 220, [(1R,4R)-2,5-Diazabicyclo[2.2.1]heptan-2-yl]-[1-[5-(2-fluorophenyl)-pyrimidin-2-yl]spiro[1,2-dihydro-indole-3,1′-cyclopropane]-6-yl]-methanone] | 0.1 to 1 µM
13 | O=C(c1ccc2c(c1)N(c1ncc(-c3ccccc3F)cn1)CC21CC1)N1CC[C@@H](CO)C1 [Compound 311, [1-[5-(2-Fluorophenyl)-pyrimidin-2-yl]-spiro[1,2-dihydro-indole-3,1′-cyclopropane]-6-yl]-[(3R)-3-(hydroxymethyl)-pyrrolidin-1-yl]-methanone] | < 0.1 µM
14 | Cc1cccc(-c2cnc(N3CC4(CC4)c4ccc(C(=O)N5CCNC(=O)C5)cc43)nc2)n1 [Compound 286, 4-[1-[5-(6-Methyl-pyridin-2-yl)-pyrimidin-2-yl]-spiro[1,2-dihydro-indole-3,1′-cyclopropane]-6-carbonyl]-piperazin-2-one] | < 0.1 µM
15 | CN(CCO)C(=O)c1ccc2c(c1)N(c1ncc(-c3cc(N(C)C)ccn3)cn1)CC21CC1 [Compound 272, 1-[5-(4-Dimethylamino-pyridin-2-yl)-pyrimidin-2-yl]-N-(2-hydroxy-ethyl)-N-methyl-spiro[1,2-dihydro-indole-3,1′-cyclopropane]-6-carboxylic acid amide] | < 0.1 µM
16 | Cc1ccnc(-c2cnc(N3CC4(CC4)c4ccc(C(=O)N(C)C)cc43)nc2)c1 [Compound 299, N,N-Dimethyl-1-[5-(4-methyl-pyridin-2-yl)-pyrimidin-2-yl]-spiro[1,2-dihydro-indole-3,1′-cyclopropane]-6-carboxylic acid amide] | < 0.1 µM
17 | O=C(c1ccc2c(c1)N(c1ncc(-c3ccccc3F)cn1)CC21CC1)N1C[C@@H]2C[C@H]1CN2 [Compound 221, [(1S,4S)-2,5-Diazabicyclo[2.2.1]heptan-2-yl]-[1-[5-(2-fluorophenyl)-pyrimidin-2-yl]-spiro[1,2-dihydro-indole-3,1′-cyclopropane]-6-yl]-methanone] | < 0.1 µM
18 | CN(CCO)C(=O)c1ccc2c(c1)N(c1ncc(-c3cccc(O)c3)cn1)CC21CC1 [Compound 264, N-(2-Hydroxy-ethyl)-1-[5-(3-hydroxyphenyl)-pyrimidin-2-yl]-N-methyl-spiro[1,2-dihydro-indole-3,1′-cyclopropane]-6-carboxylic acid amide] | < 0.1 µM
